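Protocol summary: plate cells (96-well), add compound at 5 concentrations, incubate 48 h, interpolate endpoints linearly. TGI: concentration producing complete growth inhibition.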
Legend:
Experiment in all cases: NCI tumour cell line growth inhibition, 48 h
SF-539 CNS = test system: SF-539 CNS
OVCAR-4 ovarian = test system: OVCAR-4 ovarian
RXF 393 renal = test system: RXF 393 renal
NCI-H23 lung = test system: NCI-H23 lung
UACC-62 melanoma = test system: UACC-62 melanoma
HCC-2998 colon = test system: HCC-2998 colon
786-0 renal = test system: 786-0 renal
SF-295 CNS = test system: SF-295 CNS
SW-620 colon = test system: SW-620 colon
SNB-19 CNS = test system: SNB-19 CNS
HCT-116 colon = test system: HCT-116 colon
NCI-H460 lung = test system: NCI-H460 lung
M14 melanoma = test system: M14 melanoma
OVCAR-3 ovarian = test system: OVCAR-3 ovarian
OVCAR-8 ovarian = test system: OVCAR-8 ovarian
KM12 colon = test system: KM12 colon
DU-145 prostate = test system: DU-145 prostate
SK-MEL-2 melanoma = test system: SK-MEL-2 melanoma
BT-549 breast = test system: BT-549 breast

Row | SMILES | TGI (SF-539 CNS) [µM] | TGI (OVCAR-4 ovarian) [µM] | TGI (RXF 393 renal) [µM] | TGI (NCI-H23 lung) [µM] | TGI (UACC-62 melanoma) [µM] | TGI (HCC-2998 colon) [µM] | TGI (786-0 renal) [µM] | TGI (SF-295 CNS) [µM] | TGI (SW-620 colon) [µM] | TGI (SNB-19 CNS) [µM] | TGI (HCT-116 colon) [µM] | TGI (NCI-H460 lung) [µM] | TGI (M14 melanoma) [µM] | TGI (OVCAR-3 ovarian) [µM] | TGI (OVCAR-8 ovarian) [µM] | TGI (KM12 colon) [µM] | TGI (DU-145 prostate) [µM] | TGI (SK-MEL-2 melanoma) [µM] | TGI (BT-549 breast) [µM]
1 | CC(=O)NC1C(OCc2ccccc2)OC(CO)C(O)C1OC(C)C(=O)NC(C)C(=O)NC(CCC(=O)NCCCNc1c2ccccc2nc2cccc([N+](=O)[O-])c12)C(N)=O (configuration not stated) | 19.3 | > 100 | 3.04 | 11.8 | 3.82 | 2.52 | > 100 | 35.2 | 11.6 | > 100 | 2.38 | 1.96 | 3.97 | 6.53 | 9.07 | 23.5 | – | – | –
2 | COCCOCc1nc(C#N)c(N)o1 | > 100 | > 100 | > 100 | > 100 | > 100 | > 100 | > 100 | > 100 | > 100 | > 100 | > 100 | > 100 | > 100 | > 100 | – | > 100 | > 100 | > 100 | –
3 | CNn1c(-c2ccccc2)n[nH]c1=O | > 100 | > 100 | – | > 100 | > 100 | > 100 | > 100 | > 100 | > 100 | > 100 | > 100 | > 100 | > 100 | > 100 | > 100 | > 100 | > 100 | > 100 | > 100
4 | CS(=O)(=O)Nc1ccc(N2Cc3cnc4ccc5[nH]ccc2c5c34)cc1 | – | 46.6 | – | 76.9 | 35.9 | – | 40.3 | > 100 | > 100 | 42 | 27.8 | 46.2 | 32.2 | 32.2 | 62.5 | > 100 | 40.9 | 31.7 | 51.3
5 | CC(=O)OCCn1cnc2nc(Nc3ccccc3)nc(Cl)c21 | > 100 | > 100 | – | > 100 | > 100 | > 100 | > 100 | > 100 | > 100 | > 100 | > 100 | > 100 | – | > 100 | > 100 | > 100 | > 100 | – | –
6 | O=C(O)c1nc(-c2ccccc2)ncc1-c1nnnn1-c1ccccc1 | > 100 | – | > 100 | > 100 | > 100 | > 100 | > 100 | > 100 | > 100 | > 100 | > 100 | > 100 | > 100 | > 100 | > 100 | > 100 | > 100 | > 100 | > 100
7 | CCCCCN=Cc1c(O)c(O)c(C(C)C)c2cc(C)c(-c3c(C)cc4c(C(C)C)c(O)c(O)c(C=NCCCCC)c4c3O)c(O)c12 | > 100 | – | 46.8 | > 100 | 33 | 35.9 | > 100 | – | > 100 | 18.8 | > 100 | > 100 | > 100 | 65 | > 100 | 19.8 | > 100 | > 100 | 38.7
